Several values for one entry are separate records, joined by “and”; a condition that tells them apart may be missing. Identical values can stand only once. Like-named read-outs stand apart in the source and are kept apart here.
Legend:
[1] = Quantification of nitrite by the Griess reaction (NO release); conditions: compounds at 10^-4 M, 5 mM of L-Cys (1:50), 1 h, 37°C
Procedure: The levels of nitrite resulting from the oxidation of NO in the aqueous medium were quantified through the Griess reaction after incubation with an excess of L-cysteine (1:50) according to previously published methods. The experiments were performed in triplicate and repeated three times on different days. […] The results were expressed as a percentage of nitrite (% NO2^−; mol/mol). Statistical analysis was carried out using ANOVA followed by Tukey’s Multiple Comparison Test at a significance level of p < 0.05.
The ability of all synthesized compounds (4a-x) and (14a-g) to release NO was evaluated by indirect determination of NO2^− production. The compounds at 10^−4 M were incubated for 1 h at 37°C in the presence of L-cysteine (1:50) and the produced NO2^− was determined through Griess reaction (Table 1).

[2] = tested on: L. infantum intracellular amastigotes; assay: Anti-amastigote activity in infected murine peritoneal macrophages; assay type: cell-based; conditions: Leishmania infantum, Peritoneal macrophage, read-out: EC50 - Effective Concentration that kills 50% of L. infantum amastigote forms
Procedure: (§1) The antileishmanial activity against L. infantum intracellular amastigotes, according to the following methodology. […] Were used infected macrophages as negative control and amphotericin B as the positive control.
(§2) After incubation, cells were fixed with methanol and Giemsa stained. The effective concentration to 50% amastigotes death (EC) was obtained by counting 100 macrophages in duplicate, in two independent experiments. The values were obtained by non-linear regression on Bioestat® software, and results were expressed in mean ± standard deviation.

[3] = as above; assay type: cell-based, L. infantum; conditions: Swiss, mouse; CC50 macrophages / EC50 L. infantum amastigotes; read-out: SI - Selective Index (CC50/EC50)
Procedure: as §1, §2

[4] = molecular target: T1, recombinant Leishmania cysteine protease LmCPB2.8ΔCTE (CPB) (Leishmania mexicana, UniProt P36400); assay: Enzymatic inhibition of recombinant CPB (Z-FR-AMC substrate); assay type: biochemical
T1 construct: The ORF that codes for the Leishmania mexicana CPB, lacking the C terminal extension (CPB2.8ΔCTE); made in house; host or cells: Pichia pastoris X-33
Procedure: The concentration of the active recombinant CPB expressed in Pichia pastoris supernatant was determined by active site titration with N-(trans-Epoxysuccinyl)-L-leucine 4-guanidinobutylamide E-64 (CalBiochem) that was found 1 μM. The active enzyme represented about 80% of the total recombinant enzyme.
Compounds were dissolved in DMSO to a final concentration of 20 μM. The assays were performed in dark 96 well-plates, containing 200 μL of 100 mM sodium acetate buffer (pH 5.5), 200 mM NaCl, 0.01% Triton-X100, 2 nM enzyme, various concentrations of inhibitor, and 5 μM of the substrate Z-FR-AMC (Calbiochem). The final concentration of DMSO was 1% (v/v). The enzyme was pre-incubated at 30°C for 2 minutes before the inhibitor was added, waited 2 minutes and after this incubation, the reaction was started by the addition of the substrate, Z-FR-AMC. The fluorescence was monitored at 380 nm excitation and 460 nm emission filters for 2 minutes at 30°C in an Infinite 200 PRO microplate reader (Tecan, Männedorf, Switzerland). The residual activity was measured by the ratio between enzyme + substrate and enzyme + inhibitor + substrate. […] Results were expressed in mean ± standard deviation of two independent replicates using Bioestat Software.

T1 sequence (P36400 126-341, stated change not applied): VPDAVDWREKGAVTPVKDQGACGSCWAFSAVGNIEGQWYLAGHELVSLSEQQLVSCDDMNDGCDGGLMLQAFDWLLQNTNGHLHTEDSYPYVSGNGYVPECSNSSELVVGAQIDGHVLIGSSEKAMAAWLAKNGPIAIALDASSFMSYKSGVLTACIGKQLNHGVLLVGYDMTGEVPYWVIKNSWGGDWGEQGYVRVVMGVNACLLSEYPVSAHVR

Structure (SMILES)	% NO2- (mol/mol) [1]	EC50 ([2]; 24 h treatment, intracellular amastigotes) [µM]	selectivity ratio at 24 h [3]	IC50 [4] [µM]	EC50 ([2]; 24 h) [µM]	melting point [°C]	IC50 ([4]; read-out: IC50 - Inhibition of CPB, 2 nM enzyme, 5 μM Z-FR-AMC, pH 5.5, 30°C) [µM]
C[C@@H]1[C@H](O)[C@@H](C)/C=C/C=C/C=C/C=C/C=C/C=C/C=C/[C@H](O[C@@H]2O[C@H](C)[C@@H](O)[C@H](N)[C@@H]2O)C[C@@H]2O[C@](O)(C[C@@H](O)C[C@@H](O)[C@H](O)CC[C@@H](O)C[C@@H](O)CC(=O)O[C@H]1C)C[C@H](O)[C@H]2C(=O)O [Amphotericin B, amphotericin B, reference compound]	0%	1 ± 0.1	12	–	–	–	–
O=C(N/N=C/c1ccc(Oc2no[n+]([O-])c2-c2ccccc2)cc1)c1ccccc1 [Compound 4a, (E)-4-(4-((2-benzoylhydrazono)methyl)phenoxy)-3-phenyl-1,2,5-oxadiazole 2-oxide]	9.0 ± 0.7 %	–	> 357	1.5 ± 0.1	1.4 ± 0.1	–	–
O=C(N/N=C/c1ccc(Oc2no[n+]([O-])c2-c2ccccc2)cc1)c1ccc(O)cc1 [Compound 4b, (E)-4-(4-((2-(4-hydroxybenzoyl)hydrazono)methyl)phenoxy)-3-phenyl-1,2,5-oxadiazole 2-oxide]	8.8 ± 0.6 %	–	54	3.2 ± 0.3	3.1 ± 0.2	–	–
Nc1ccc(C(=O)N/N=C/c2ccc(Oc3no[n+]([O-])c3-c3ccccc3)cc2)cc1 [Compound 4c, (E)-4-(4-((2-(4-aminobenzoyl)hydrazono)methyl)phenoxy)-3-phenyl-1,2,5-oxadiazole 2-oxide]	9.3 ± 0.8 %	–	17	2 ± 0.1	7.2 ± 0.2	–	–
O=C(N/N=C/c1ccc(Oc2no[n+]([O-])c2-c2ccccc2)cc1)c1ccc([N+](=O)[O-])cc1 [Compound 4d, (E)-4-(4-((2-(4-nitrobenzoyl)hydrazono)methyl)phenoxy)-3-phenyl-1,2,5-oxadiazole 2-oxide]	8.6 ± 0.8 %	–	> 128	1.8 ± 0.1	3.9 ± 0.4	–	–
CC(C)(C)c1ccc(C(=O)N/N=C/c2ccc(Oc3no[n+]([O-])c3-c3ccccc3)cc2)cc1 [Compound 4e, (E)-4-(4-((2-(4-(tert-butyl)benzoyl)hydrazono)methyl)phenoxy)-3-phenyl-1,2,5-oxadiazole 2-oxide]	8.8 ± 0.7 %	–	> 833	0.8 ± 0.1	0.6 ± 0.1	–	–
NC(=S)N/N=C/c1ccc(Oc2no[n+]([O-])c2-c2ccccc2)cc1 [Compound 4g, (E)-4-(4-((2-carbamothioylhydrazono)methyl)phenoxy)-3-phenyl-1,2,5-oxadiazole 2-oxide]	9.0 ± 0.6 %	–	> 227	6.5 ± 1	2.2 ± 0.3	–	–
NC(=O)c1c(COc2ccc(/C=N/NC(=O)c3ccccc3)cc2)no[n+]1[O-] [Compound 4h, (E)-4-((4-((2-benzoylhydrazono)methyl)phenoxy)methyl)-3-carbamoyl-1,2,5-oxadiazole 2-oxide]	12.1 ± 1.2 %	–	> 161	8.8 ± 0.2	3.1 ± 0.2	–	–
NC(=O)c1c(COc2ccc(/C=N/NC(=O)c3ccc(O)cc3)cc2)no[n+]1[O-] [Compound 4i, (E)-3-carbamoyl-4-((4-((2-(4-hydroxybenzoyl)hydrazono)methyl)phenoxy)methyl)-1,2,5-oxadiazole 2-oxide]	12.3 ± 0.9 %	–	–	5.7 ± 0.4	> 10	201 to 203	–
NC(=O)c1c(COc2ccc(/C=N/NC(=O)c3ccc(N)cc3)cc2)no[n+]1[O-] [Compound 4j, (E)-4-((4-((2-(4-aminobenzoyl)hydrazono)methyl)phenoxy)methyl)-3-carbamoyl-1,2,5-oxadiazole 2-oxide]	12.7 ± 0.8 %	–	–	11.1 ± 0.1	> 10	209 to 214	–
NC(=O)c1c(COc2ccc(/C=N/NC(=O)c3ccc([N+](=O)[O-])cc3)cc2)no[n+]1[O-] [Compound 4l, (E)-3-carbamoyl-4-((4-((2-(4-nitrobenzoyl)hydrazono)methyl)phenoxy)methyl)-1,2,5-oxadiazole 2-oxide]	11.8 ± 1.1 %	–	–	10.8 ± 2.3	7.7 ± 2.1	–	–
CC(C)(C)c1ccc(C(=O)N/N=C/c2ccc(OCc3no[n+]([O-])c3C(N)=O)cc2)cc1 [Compound 4m, (E)-4-((4-((2-(4-(tert-butyl)benzoyl)hydrazono)methyl)phenoxy)methyl)-3-carbamoyl-1,2,5-oxadiazole 2-oxide]	12.5 ± 1.3 %	–	> 78	6 ± 0.7	6.4 ± 1.1	–	–
NC(=O)N/N=C/c1ccc(OCc2no[n+]([O-])c2C(N)=O)cc1 [Compound 4n, (E)-3-carbamoyl-4-((4-((2-carbamoylhydrazono)methyl)phenoxy)methyl)-1,2,5-oxadiazole 2-oxide]	12.0 ± 1.4 %	–	–	13.7 ± 1.8	> 10	228 to 230	–
O=C(N/N=C/c1ccc2no[n+]([O-])c2c1)c1ccccc1 [Compound 4p]	–	–	–	> 20	> 10	–	–
Nc1ccccc1C(=O)N/N=C/c1ccc2no[n+]([O-])c2c1 [Compound 4q]	–	–	–	14 ± 2	> 10	–	–
Nc1cccc(C(=O)N/N=C/c2ccc3no[n+]([O-])c3c2)c1 [Compound 4r]	–	–	11	3.4 ± 0.1	9.5 ± 0.6	–	–
Nc1ccc(C(=O)N/N=C/c2ccc3no[n+]([O-])c3c2)cc1 [Compound 4s]	–	–	–	> 20	> 10	–	–
O=C(N/N=C/c1ccc2no[n+]([O-])c2c1)c1ccccc1O [Compound 4t]	–	–	–	4.2 ± 0.2	> 10	–	–
O=C(N/N=C/c1ccc2no[n+]([O-])c2c1)c1cccc(O)c1 [Compound 4u]	–	–	–	11.7 ± 0.5	> 10	–	–
O=C(N/N=C/c1ccc2no[n+]([O-])c2c1)c1ccc(O)cc1 [Compound 4v]	–	–	–	> 20	> 10	–	–
CC(C)(C)c1ccc(C(=O)N/N=C/c2ccc3no[n+]([O-])c3c2)cc1 [Compound 4x]	–	–	–	–	> 10	–	> 20
NC(=O)N/N=C/c1ccc(O)cc1 [Compound 14a, (E)-2-(4-hydroxybenzylidene)hydrazine-1-carboxamide]	–	–	–	2 ± 0.1	> 10	224 to 226	–
NC(=S)N/N=C/c1ccc(O)cc1 [Compound 14b, (E)-2-(4-hydroxybenzylidene)hydrazine-1-carbothioamide]	–	–	–	11.7 ± 1	–	–	–
O=C(N/N=C/c1ccc(O)cc1)c1ccccc1 [Compound 14c, (E)-N’-(4-hydroxybenzylidene)benzohydrazide]	–	–	–	2 ± 0.3	> 10	244 to 245	–
O=C(N/N=C/c1ccc(O)cc1)c1ccc(O)cc1 [Compound 14d, (E)-4-hydroxy-N’-(4-hydroxybenzylidene)benzohydrazide]	–	–	–	2 ± 0.1	> 10	–	–
Nc1ccc(C(=O)N/N=C/c2ccc(O)cc2)cc1 [Compound 14e, (E)-4-amino-N’-(4-hydroxybenzylidene)benzohydrazide]	–	–	–	1.2 ± 0.1	> 10	275 to 276	–
O=C(N/N=C/c1ccc(O)cc1)c1ccc([N+](=O)[O-])cc1 [Compound 14f, (E)-N’-(4-hydroxybenzylidene)-4-nitrobenzohydrazide]	–	–	–	4 ± 0.1	> 10	266 to 268	–
CC(C)(C)c1ccc(C(=O)N/N=C/c2ccc(O)cc2)cc1 [Compound 14g, (E)-4-(tert-butyl)-N’-(4-hydroxybenzylidene)benzohydrazide]	–	–	–	7.6 ± 2.1	> 10	–	–
O=[N+]([O-])O[C@H]1CO[C@H]2[C@@H]1OC[C@H]2O[N+](=O)[O-] [DNS, isosorbide dinitrate, reference compound]	10.5% and 10.5 ± 0.9 ^*^a %	–	–	–	–	–	–

From paper PMC8559926, “Design, synthesis and biological evaluation of N-oxide derivatives with potent in vivo antileishmanial activity” (PLoS ONE, 2021)
